# Values quoted from earlier work as cited in US20070072232A1, “Identification of genetic components of drug response” (Variagenics, Inc. a Delaware corporation, priority 2000, published 2007).
# Counter-ions that a name gives are not always drawn.
# Tested on: Alzheimer's disease
# Details: per PDR
smiles,measurement,setting,value
"Nc1c2c(nc3ccccc13)CCCC2 [Cognex, tacrine hydrochloride]",patients showing no change or minimal worsening of their disease,patients receiving Cognex for Alzheimer's disease,about 45%
same,Alzheimer's patients minimally improved,patients receiving Cognex,About 58%
same,patients much improved,patients receiving Cognex,about 2%
